In ChEMBL document CHEMBL1909046, “DrugMatrix in vitro pharmacology data”:

Columns and labels:
[1] = target: T1, Thromboxane-A synthase (Homo sapiens, UniProt P24557); experiment: biochemical; assay type: tissue-based, Platelet;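 further: enzyme inhibition assay with PGH2 supplied as substrate; in other assays of this panel Not Active means under 50% inhibition at 10 µM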
T1 sequence (P24557 whole entry): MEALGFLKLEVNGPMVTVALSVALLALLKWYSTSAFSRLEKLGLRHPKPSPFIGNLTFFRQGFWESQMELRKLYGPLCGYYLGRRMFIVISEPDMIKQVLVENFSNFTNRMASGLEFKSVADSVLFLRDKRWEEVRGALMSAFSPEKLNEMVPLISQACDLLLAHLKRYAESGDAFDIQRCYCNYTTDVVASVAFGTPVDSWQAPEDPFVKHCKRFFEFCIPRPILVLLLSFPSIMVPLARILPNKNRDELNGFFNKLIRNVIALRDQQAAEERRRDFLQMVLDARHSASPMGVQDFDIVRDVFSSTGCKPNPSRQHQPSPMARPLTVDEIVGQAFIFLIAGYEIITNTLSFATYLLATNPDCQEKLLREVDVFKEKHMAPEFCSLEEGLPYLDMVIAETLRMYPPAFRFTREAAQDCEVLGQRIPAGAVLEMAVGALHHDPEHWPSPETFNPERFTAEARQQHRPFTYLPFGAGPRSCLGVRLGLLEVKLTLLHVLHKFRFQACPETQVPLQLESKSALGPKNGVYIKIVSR

[2] = target: 5-hydroxytryptamine receptor 2B (Homo sapiens, UniProt P41595); assay type: cell membranes, CHO-K1, Membrane; further: in other assays of this panel Not Active means under 50% inhibition at 10 µM
5-hydroxytryptamine receptor 2B, sequence (P41595 whole entry): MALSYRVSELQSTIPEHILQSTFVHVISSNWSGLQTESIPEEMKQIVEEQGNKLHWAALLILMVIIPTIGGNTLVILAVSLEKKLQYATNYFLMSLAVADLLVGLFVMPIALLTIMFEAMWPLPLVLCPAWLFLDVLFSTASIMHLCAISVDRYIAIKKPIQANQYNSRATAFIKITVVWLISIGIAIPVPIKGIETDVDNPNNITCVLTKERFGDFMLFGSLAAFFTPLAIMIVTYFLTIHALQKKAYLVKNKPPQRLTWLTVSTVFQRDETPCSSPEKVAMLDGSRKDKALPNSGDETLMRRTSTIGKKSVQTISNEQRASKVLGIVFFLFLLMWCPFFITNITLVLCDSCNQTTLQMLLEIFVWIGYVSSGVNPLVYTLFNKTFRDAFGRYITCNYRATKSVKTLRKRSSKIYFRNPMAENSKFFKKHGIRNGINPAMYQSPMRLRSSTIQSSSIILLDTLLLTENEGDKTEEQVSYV

[3] = target: Sodium-dependent noradrenaline transporter (Homo sapiens, UniProt P23975); experiment: DRUGMATRIX: Norepinephrine Transporter radioligand binding (ligand: [125I] RTI-55); assay type: cell membranes, MDCK, Membrane; conditions: Not Active = under 50% inhibition at 10 µM
Sodium-dependent noradrenaline transporter, sequence (P23975 whole entry): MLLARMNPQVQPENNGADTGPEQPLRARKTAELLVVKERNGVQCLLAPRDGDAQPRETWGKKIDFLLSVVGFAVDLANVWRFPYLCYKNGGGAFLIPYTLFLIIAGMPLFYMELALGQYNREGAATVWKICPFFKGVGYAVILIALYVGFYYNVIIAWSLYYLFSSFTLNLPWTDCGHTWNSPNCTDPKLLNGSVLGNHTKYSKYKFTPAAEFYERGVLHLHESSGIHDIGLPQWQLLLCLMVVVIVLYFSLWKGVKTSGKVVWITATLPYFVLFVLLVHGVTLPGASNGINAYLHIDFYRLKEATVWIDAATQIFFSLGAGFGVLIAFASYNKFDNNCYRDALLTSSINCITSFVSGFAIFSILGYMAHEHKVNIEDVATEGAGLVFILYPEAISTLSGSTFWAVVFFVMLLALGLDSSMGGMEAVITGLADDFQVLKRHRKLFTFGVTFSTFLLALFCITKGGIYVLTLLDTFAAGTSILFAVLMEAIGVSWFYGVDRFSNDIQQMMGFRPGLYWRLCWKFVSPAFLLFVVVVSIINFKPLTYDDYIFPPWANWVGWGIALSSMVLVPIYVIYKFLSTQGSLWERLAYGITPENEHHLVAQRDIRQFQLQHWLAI

[4] = target: T2, Nitric oxide synthase, inducible (Mus musculus, UniProt P29477); set-up: species or system Escherichia coli;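 further: inhibition of iNOS enzyme activity measured with L-arginine as substrate; in other assays of this panel Not Active means under 50% inhibition at 10 µM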
T2 sequence (P29477 whole entry): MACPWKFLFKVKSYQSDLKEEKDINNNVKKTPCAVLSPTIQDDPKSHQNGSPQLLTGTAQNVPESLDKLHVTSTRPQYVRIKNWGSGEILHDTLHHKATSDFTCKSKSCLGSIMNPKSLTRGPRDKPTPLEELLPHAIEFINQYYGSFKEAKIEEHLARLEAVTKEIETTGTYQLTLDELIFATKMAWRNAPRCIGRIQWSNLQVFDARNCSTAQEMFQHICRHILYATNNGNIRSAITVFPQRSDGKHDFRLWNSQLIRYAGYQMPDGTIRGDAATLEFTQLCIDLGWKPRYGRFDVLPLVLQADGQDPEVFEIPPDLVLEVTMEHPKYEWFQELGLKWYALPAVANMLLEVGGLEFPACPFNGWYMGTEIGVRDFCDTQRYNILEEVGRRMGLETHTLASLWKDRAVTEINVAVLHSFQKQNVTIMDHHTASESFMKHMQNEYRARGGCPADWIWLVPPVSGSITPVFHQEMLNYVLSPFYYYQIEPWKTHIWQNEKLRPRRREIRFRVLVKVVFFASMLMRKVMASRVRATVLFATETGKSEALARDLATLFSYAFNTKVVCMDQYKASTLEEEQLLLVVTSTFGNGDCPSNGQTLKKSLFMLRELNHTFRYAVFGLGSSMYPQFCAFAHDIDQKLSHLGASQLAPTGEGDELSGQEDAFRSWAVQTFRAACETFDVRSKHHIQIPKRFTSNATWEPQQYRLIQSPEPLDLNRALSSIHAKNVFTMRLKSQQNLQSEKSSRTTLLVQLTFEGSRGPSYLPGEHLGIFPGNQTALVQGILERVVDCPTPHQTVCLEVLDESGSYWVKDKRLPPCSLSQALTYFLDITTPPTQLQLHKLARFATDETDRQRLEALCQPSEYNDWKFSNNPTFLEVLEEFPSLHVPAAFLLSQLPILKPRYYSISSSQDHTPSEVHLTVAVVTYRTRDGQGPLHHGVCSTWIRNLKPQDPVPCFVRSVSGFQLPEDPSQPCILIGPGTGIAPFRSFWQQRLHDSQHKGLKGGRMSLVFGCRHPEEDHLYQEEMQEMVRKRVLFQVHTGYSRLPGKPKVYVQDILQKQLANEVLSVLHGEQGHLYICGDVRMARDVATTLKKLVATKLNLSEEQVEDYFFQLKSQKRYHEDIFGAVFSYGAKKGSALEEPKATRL

[5] = target: Tyrosine-protein kinase Lck (Homo sapiens, UniProt P06239); experiment: DRUGMATRIX: Protein Tyrosine Kinase, LCK enzyme inhibition (substrate: Poly(Glu:Tyr)); assay type: cell-based, Insect cells; conditions: Not Active = under 50% inhibition at 10 µM
Tyrosine-protein kinase Lck, sequence (P06239 whole entry): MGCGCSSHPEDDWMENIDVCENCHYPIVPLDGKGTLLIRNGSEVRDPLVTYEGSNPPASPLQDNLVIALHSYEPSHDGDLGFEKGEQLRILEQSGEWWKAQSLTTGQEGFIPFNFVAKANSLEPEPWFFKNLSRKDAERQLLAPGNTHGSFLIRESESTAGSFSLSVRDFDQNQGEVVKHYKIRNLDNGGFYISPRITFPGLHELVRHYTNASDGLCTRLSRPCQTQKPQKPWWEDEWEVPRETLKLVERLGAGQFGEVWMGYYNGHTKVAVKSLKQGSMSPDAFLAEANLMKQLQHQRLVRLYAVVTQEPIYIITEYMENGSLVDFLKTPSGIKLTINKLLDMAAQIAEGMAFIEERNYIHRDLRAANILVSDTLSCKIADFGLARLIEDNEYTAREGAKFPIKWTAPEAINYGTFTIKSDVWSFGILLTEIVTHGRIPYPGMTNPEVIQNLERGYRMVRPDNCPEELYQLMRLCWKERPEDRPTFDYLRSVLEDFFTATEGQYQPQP

[6] = DRUGMATRIX: beta-Lactamase enzyme inhibition (substrate: Nitrocefin); set-up: species or system Bacillus cereus; conditions: Not Active = under 50% inhibition at 10 µM

Row | Molecule | IC50 ([1]; platelet) | Ki ([1]; platelet) | IC50 ([2]; cho-k1) | Ki ([2]; cho-k1) | IC50 ([3]; mdck) | Ki ([3]; mdck) | IC50 [4] | Ki [4] | IC50 ([5]; insect cells, read-out: IC50) [nM] | IC50 ([6]; read-out: IC50) [nM] | IC50 ([5]; insect cells) | IC50 [6] | Ki [6] | IC50 ([1]; read-out: IC50) [nM] | IC50 ([5]; read-out: IC50) [nM] | IC50 ([2]; read-out: IC50) [nM] | Ki ([2]; read-out: Ki) [nM] | IC50 ([3]; read-out: IC50) [nM] | Ki ([3]; read-out: Ki) [nM]
1 | LIPOPOLYSACCHARIDE E. COLI O55:B5 | Not Active | Not Active | Not Active | Not Active | Not Active | Not Active | Not Active | Not Active | 294 | 38.7 |  |  |  |  |  |  |  |  | 
2 | COc1cc2c3cc1Oc1cc(ccc1O)C[C@@H]1c4c(cc(OC)c(O)c4Oc4ccc(cc4)C[C@@H]3N(C)CC2)CC[N+]1(C)C.[Cl-] | Not Active |  | Not Active |  | Not Active |  | Not Active |  |  |  | Not Active | Not Active | Not Active |  |  |  |  |  | 
3 | Cc1cc(C(C#N)c2ccc(Cl)cc2)c(Cl)cc1NC(=O)c1cc(I)cc(I)c1O (stereo not given) [CLOSANTEL] |  |  | Not Active |  | Not Active |  | Not Active |  |  |  |  | Not Active | Not Active | 64 | 1250 |  |  |  | 
4 | CC(NC(C)(C)C)C(=O)c1cccc(Cl)c1 (stereo not given) [BUPROPION] | Not Active |  | Not Active |  | Not Active |  | Not Active |  |  |  | Not Active | Not Active | Not Active |  |  |  |  |  | 
5 | Cc1onc(-c2ccccc2Cl)c1C(=O)N[C@@H]1C(=O)N2[C@@H]1SC(C)(C)[C@@H]2C(=O)O [CLOXACILLIN] | Not Active |  | Not Active |  | Not Active |  | Not Active |  |  |  | Not Active | Not Active | Not Active |  |  |  |  |  | 
6 | C[C@]12CCC(=O)C=C1CC[C@@H]1[C@@H]2CC[C@@]2(C)[C@H]1CC[C@]2(C)O [METHYLTESTOSTERONE] | Not Active |  | Not Active |  | Not Active |  | Not Active |  |  |  | Not Active | Not Active | Not Active |  |  |  |  |  | 
7 | CC(=O)O[C@@]12CO[C@@H]1C[C@H](O)[C@@]1(C)C(=O)[C@H](O)C3=C(C)[C@@H](OC(=O)[C@H](O)[C@@H](NC(=O)OC(C)(C)C)c4ccccc4)C[C@@](O)([C@@H](OC(=O)c4ccccc4)[C@H]21)C3(C)C.O.O.O [DOCETAXEL] | Not Active |  | Not Active |  | Not Active |  | Not Active |  |  |  | Not Active | Not Active | Not Active |  |  |  |  |  | 
8 | Nc1ncn([C@@H]2O[C@H](CO)[C@@H](O)[C@H]2O)c(=O)n1 [AZACITIDINE] | Not Active |  | Not Active |  | Not Active |  | Not Active |  |  |  | Not Active | Not Active | Not Active |  |  |  |  |  | 
9 | C[C@](N)(Cc1ccc(O)c(O)c1)C(=O)O [METHYLDOPA] | Not Active |  | Not Active |  | Not Active |  | Not Active |  |  |  | Not Active | Not Active | Not Active |  |  |  |  |  | 
10 | O=C(CCCN1CC=C(n2c(=O)[nH]c3ccccc32)CC1)c1ccc(F)cc1 [DROPERIDOL] | Not Active |  |  |  | Not Active |  | Not Active |  |  |  | Not Active | Not Active | Not Active |  |  | 1340 | 854 |  | 
11 | CN(C)CCCN1c2ccccc2Sc2ccccc21 [PROMAZINE] | Not Active |  |  |  |  |  | Not Active |  |  |  | Not Active | Not Active | Not Active |  |  | 347 | 221 | 13 | 13
12 | CN(C)c1nc(N(C)C)nc(N(C)C)n1 [ALTRETAMINE] | Not Active |  | Not Active |  | Not Active |  | Not Active |  |  |  | Not Active | Not Active | Not Active |  |  |  |  |  | 
13 | CC1CC(OC(=O)C(O)c2ccccc2)CC(C)(C)C1 (stereo not given) [CYCLANDELATE] | Not Active |  | Not Active |  | Not Active |  | Not Active |  |  |  | Not Active | Not Active | Not Active |  |  |  |  |  | 
14 | CCCN1C[C@H](CSC)C[C@@H]2c3cccc4[nH]cc(c34)C[C@H]21 [PERGOLIDE] | Not Active |  |  |  | Not Active |  | Not Active |  |  |  | Not Active | Not Active | Not Active |  |  | 76 | 49 |  | 
